The text below walks through data of patent US10870624B2, “Histone deacetylase inhibitors” (Karus Therapeutics Limited, priority 2013, dated 2020).

For orientation: IC50 means the concentration that inhibits the measured activity by half.

One test has as its target T1, Human HDAC1 (Homo sapiens, UniProt Q13547).
T1 construct: full length with C-terminal His-tag and C-terminal FLAG-tag; His-tag (C); FLAG-tag (C); made in house; host or cells: baculovirus expression system (insect cells)
Description: Biochemical HDAC assay with acetylated AMC-labeled peptide substrate, HDAC1. The settings on record: HDAC1, 2 hours at 30° C.; read-out: IC50 (nM) HDAC 1. As for the experimental part: (§1) Activity against all zinc-dependent HDACs 1 to 11 was assessed by using an acetylated AMC-labeled peptide substrate. The substrate RHKKAc was used for all class I and IIb HDACs; for […], the substrate used was RHKAcKAc. […] All assays were based on the AMC-labeled substrate and developer combination.
(§2) The protocol involved a two-step reaction: first, the substrate with the acetylated lysine side chain is incubated with a sample containing HDAC activity, to produce the deacetylated products, which are then digested in the second step by the addition of developer to produce the fluorescent signal proportional to the amount of deacetylated substrates.
Human HDAC1 (GenBank Accession No. NM_004964), full length with C-terminal His-tag and C-terminal FLAG-tag, MW=56 kDa, expressed in baculovirus expression system.
(§3) Before use, 1 mg/mL BSA and DMSO are added.
(§4) Incubate for 2 hours at 30° C.
(§5) Stage 1: Deacetylation of substrate by incubation of HDAC enzymes with compounds
(§6) Stage 2: Development by addition of Developer to digest the deacetylated substrate, and generate the fluorescent color; Detection: 360/460 Ex/Em

Another test concerns the target T2, Recombinant human HDAC6 (Homo sapiens, UniProt Q9UBN7).
T2 construct: full length, MW=180 kDa, was expressed by baculovirus in Sf9 insect cells; GST (N); made in house; host or cells: Sf9 insect cells (baculovirus)
T2 sequence (Q9UBN7 1-1215): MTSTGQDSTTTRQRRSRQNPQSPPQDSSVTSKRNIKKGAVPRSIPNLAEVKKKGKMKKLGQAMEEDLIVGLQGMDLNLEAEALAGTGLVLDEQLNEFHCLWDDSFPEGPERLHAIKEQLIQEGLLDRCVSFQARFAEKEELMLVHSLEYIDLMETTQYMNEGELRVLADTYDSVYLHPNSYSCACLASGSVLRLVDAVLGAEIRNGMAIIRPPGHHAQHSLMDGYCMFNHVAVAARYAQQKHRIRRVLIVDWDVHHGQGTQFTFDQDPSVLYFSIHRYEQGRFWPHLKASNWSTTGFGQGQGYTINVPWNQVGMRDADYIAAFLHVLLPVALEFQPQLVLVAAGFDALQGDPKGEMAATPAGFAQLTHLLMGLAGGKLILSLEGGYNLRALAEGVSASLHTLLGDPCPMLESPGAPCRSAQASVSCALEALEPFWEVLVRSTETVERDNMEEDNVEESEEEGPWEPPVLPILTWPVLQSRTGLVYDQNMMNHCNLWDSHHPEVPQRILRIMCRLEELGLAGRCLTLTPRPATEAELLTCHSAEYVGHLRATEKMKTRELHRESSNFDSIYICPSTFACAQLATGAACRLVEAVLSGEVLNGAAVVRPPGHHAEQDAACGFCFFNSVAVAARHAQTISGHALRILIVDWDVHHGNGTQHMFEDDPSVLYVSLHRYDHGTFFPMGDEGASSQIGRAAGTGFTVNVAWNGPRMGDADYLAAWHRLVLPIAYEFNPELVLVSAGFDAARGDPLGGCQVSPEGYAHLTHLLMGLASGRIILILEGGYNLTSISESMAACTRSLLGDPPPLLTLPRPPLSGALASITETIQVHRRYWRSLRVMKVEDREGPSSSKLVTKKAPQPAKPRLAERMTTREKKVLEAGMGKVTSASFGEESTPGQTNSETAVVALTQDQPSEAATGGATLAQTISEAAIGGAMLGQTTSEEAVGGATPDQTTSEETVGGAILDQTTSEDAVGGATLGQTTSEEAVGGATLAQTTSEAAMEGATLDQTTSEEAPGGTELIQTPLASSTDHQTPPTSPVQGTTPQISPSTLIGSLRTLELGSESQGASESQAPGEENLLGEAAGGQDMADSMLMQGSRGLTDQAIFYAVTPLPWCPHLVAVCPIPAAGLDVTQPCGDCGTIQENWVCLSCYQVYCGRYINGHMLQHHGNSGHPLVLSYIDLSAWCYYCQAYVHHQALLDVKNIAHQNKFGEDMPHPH
Description: Biochemical HDAC assay with acetylated AMC-labeled peptide substrate, HDAC6. The settings on record: HDAC6, 2 hours at 30° C.; read-out: IC50 (nM) HDAC 6. As for the experimental part:
as §1, §2
Recombinant human HDAC6 (GenBank Accession No. BC069243), full length, MW=180 kDa, was expressed by baculovirus in Sf9 insect cells using an N-terminal GST tag.
as §3, §4, §5, §6

T1 sequence (Q13547 whole entry): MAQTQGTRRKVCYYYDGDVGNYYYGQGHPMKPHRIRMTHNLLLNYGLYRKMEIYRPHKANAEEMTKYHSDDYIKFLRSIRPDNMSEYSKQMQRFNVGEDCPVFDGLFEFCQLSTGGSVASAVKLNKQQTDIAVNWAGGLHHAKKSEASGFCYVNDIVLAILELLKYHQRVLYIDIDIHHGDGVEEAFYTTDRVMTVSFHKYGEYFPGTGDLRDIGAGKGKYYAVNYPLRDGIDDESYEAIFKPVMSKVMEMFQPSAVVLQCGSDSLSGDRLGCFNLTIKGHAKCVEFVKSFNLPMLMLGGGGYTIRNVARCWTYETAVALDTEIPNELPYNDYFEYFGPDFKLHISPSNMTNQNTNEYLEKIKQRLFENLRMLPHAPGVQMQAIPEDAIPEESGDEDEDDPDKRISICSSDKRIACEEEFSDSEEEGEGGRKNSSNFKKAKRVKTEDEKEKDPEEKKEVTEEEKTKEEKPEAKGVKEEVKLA

Turning to `O=C(NO)c1ccc(CN(c2ccccn2)c2ccccn2)cc1` [Example A, 4-{[Bis(pyridin-2-yl)amino]methyl}-N-hydroxybenzamide], the IC50 on Human HDAC1 is above 10000 nM; at Recombinant human HDAC6, at most 500 nM.
For `Cc1nsc(N(Cc2ccc(C(=O)NO)c(F)c2)c2nc(C)ns2)n1` [Example B, 4-{[Bis(3-methyl-1,2,4-thiadiazol-5-yl)amino]methyl}-2-fluoro-N-hydroxybenzamide] the same measures were above 10000 nM and at most 500 nM.
For `Cc1noc(N(Cc2ccc(C(=O)NO)c(F)c2)c2nc(C)ns2)n1` [Example C, 2-Fluoro-N-hydroxy-4-{[(3-methyl-1,2,4-oxadiazol-5-yl)(3-methyl-1,2,4-thiadiazol-5-yl)amino]methyl}benzamide] the same measures were 1000 to 10000 nM and at most 500 nM.
For `Cc1noc(N(Cc2ccc(C(=O)NO)cc2)c2ccccn2)n1` [Example D, N-Hydroxy-4-(((3-methyl-1,2,4-oxadiazol-5-yl)(pyridin-2-yl)amino)methyl)benzamide] the same measures were 1000 to 10000 nM and at most 500 nM.
For `Cn1ccc(N(Cc2ccc(C(=O)NO)cc2)c2ccccn2)n1` [Example E, N-Hydroxy-4-(((1-methyl-1H-pyrazol-3-yl)(pyridin-2-yl)amino)methyl)benzamide], the IC50 is 1000 to 10000 nM at Human HDAC1 and at most 500 nM on Recombinant human HDAC6.
On the same counts, the results for `O=C(NO)c1ccc(CN(c2ccccn2)c2nncs2)cc1` [Example F, N-Hydroxy-4-((pyridin-2-yl(1,3,4-thiadiazol-2-yl)amino)methyl)benzamide] are above 10000 nM and at most 500 nM.
For `O=C(NO)c1ccc(CN(c2ccccn2)c2cnccn2)cc1` [Example G, N-Hydroxy-4-((pyrazin-2-yl(pyridin-2-yl)amino)methyl)benzamide] the same measures were above 10000 nM and at most 500 nM.
